Measurements published in US8871796B2, “Diaryl ether derivatives as notch sparing gamma secretase inhibitors” (Merck Sharp & Dohme Corp., priority 2009, dated 2014).
Like-named read-outs stand apart in the source and are kept apart here.

Experiments:
[1] = Pharmacokinetics in rats, IV or PO dosing, plasma LC-MS/MS; assay type: in vivo, Sprague Dawley rats; conditions: for clearance / bioavailability / half-life: Sprague Dawley; for clearance: intravenous, read-out: Rat Cl; for AUC(Norm)(0-x): dose-normalised
Procedure: Pharmacokinetic parameters are determined in Sprague Dawley rats, Beagle dogs or Rhesus monkeys by dosing the compounds intravenously (IV) or orally (PO). A dose of 0.25 mg/kg is administered either IV or PO to each subject with a dosing solution of 0.25 mg/ml in a 30:70 v/v mixture of PEG400:40% Captisol®. Plasma samples are collected at 5 min. (IV only), 15 min., 30 min., 1 h, 2 h, 4 h, 6 h, 8 h, 24 h, 48 h, 72 h, 96 h, 120 h, 144 h, and 168 h. Samples are analyzed by LC-MS/MS (API5000™) to determine the concentration in plasma. Briefly, 50 μL plasma is precipitated with 200 μL acetonitrile containing an appropriate internal standard. Samples are filtered, 500 pt of water is added to each sample and 10 μl, of this is injected on a C18 column (2.0 mm×30 mm, 3 μm particle size) and eluted using a gradient LC method with water containing 0.1% formic acid as the aqueous mobile phase, and acetonitrile containing 0.1% formic acid as the organic phase. Electrospray ionization with multiple reaction monitoring is used for MS/MS detection. Plasma concentration of the compounds is determined using a standard curve that was prepared similar to the samples in the respective matrix. Non-compartmental analysis is performed using Watson 7.2 to generate the PK parameters.

[2] = APP processing: AlphaLisa assay of secreted Aβ40 and Aβ42 from SP4CT cells; assay type: cell-based; conditions: Homo sapiens, SH-SY5Y cells expressing amyloid β protein (SP4CT cells)
Summary of the method: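 Secreted Aβ40 and Aβ42 were quantified separately by AlphaLisa luminescence, pairing streptavidin donor beads bearing biotinylated 4G8 with G210 or 12F4 acceptor beads. Samples were conditioned media from compound-treated SH-SY5Y cells expressing amyloid β protein (SP4CT).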

[3] = plasma, rat, 0.25 mg/kg IV or PO
[4] = read-out: IC50, inhibition of production of Aβ40 peptide
[5] = read-out: IC50, inhibition of production of Aβ42 peptide

Row | clearance ([1]; rat, 0.25 mg/kg, plasma) [mL/min/kg] | bioavailability [1, 3] [%] | half-life ([1]; rat, 0.25 mg/kg, plasma) [min] | AUC(Norm)(0-x) ([1]; rat, 0.25 mg/kg, plasma) [µM·kg·h/mg] | IC50 [2, 4] [nM] | IC50 [2, 5] [nM] | Rat Cl ([1]; 0.25 mg/kg, plasma) [mL/min/kg] | % F ([1]; rat, 0.25 mg/kg IV or PO) [%] | t1/2 ([1]; rat, 0.25 mg/kg, plasma) [h] | Compound
1 | 43 | 9 | 138 | 0.79 |  |  |  |  |  | CCn1nc(COc2ccc(F)cc2)cc1-c1cccc(C(C)(C)NS(=O)(=O)NC2CCC2)c1 [Example 2 from WO 2004/089911 A1, reference compound]
2 | 31 | 75 | 540 | 0.96 | < 200 | < 200 |  |  |  | CCn1nc(Oc2ccc(C(F)(F)F)cc2)cc1-c1cccc(C(C)(C)NS(=O)(=O)NCC(F)(F)F)c1 [Example 19, N-[1-(3-{1-ethyl-3-[4-(trifluoromethyl)phenoxy]-1H-pyrazol-5-yl}phenyl)-1-methylethyl]-N′-(2,2,2-trifluoroethyl)sulfamide]
3 | 120 |  | 324 | 0.25 |  |  |  |  |  | CCn1nc(-c2cccc(C(C)(C)NS(=O)(=O)CC(F)(F)F)c2)cc1CN1CCC(C(F)(F)F)CC1 [Example 23 from WO 2004/089911 A1, reference compound]
4 | 35 | 28 | 288 | 0.92 |  |  |  |  |  | CCn1nc(COc2ccc(C#N)cc2)cc1-c1cccc(C(C)(C)NS(=O)(=O)NC(F)(F)F)c1 [Example 27 from WO 2004/089911 A1, reference compound]
5 | 41 | 12 | 168 | 0.09 | < 200 | < 200 |  |  |  | CCn1nc(-c2cccc(C3(NS(=O)(=O)NCC(F)(F)F)COC3)c2)cc1Oc1ccc(C(F)(F)F)cc1 [Example 96, N-[3-(3-{1-ethyl-5-[4-(trifluoromethyl)phenoxy]-1H-pyrazol-3-yl}phenyl)oxetan-3-yl]-N′-(2,2,2-trifluoroethyl)sulfamide]
6 |  |  |  |  | < 200 | < 200 |  |  |  | COCCn1nc(-c2cccc(C3(NS(=O)(=O)CC(F)(F)F)COC3)c2)cc1Oc1ccc(C(F)(F)F)cc1 [Example 141, N-(3-{3-[5-(4-trifluoromethylphenoxy)-1-(2-methoxyethyl)-1H-pyrazol-2-yl]phenyl}oxetan-3-yl)-2,2,2-trifluoroethanesulfonamide]
7 |  |  |  |  | < 200 | < 200 |  |  |  | COCCCn1nc(-c2cccc(C3(NS(=O)(=O)CC(F)(F)F)COC3)c2)cc1Oc1ccc(C(F)(F)F)cc1 [Example 142]
8 |  |  |  | 35 |  |  | 1 | 70 | 16 | N-(1-{3-[1-ethyl-3-(4-fluorophenoxy)-1H-pyrazol-5-yl]phenyl}-1-methylethyl)-2,2,2-trifluoroethanesulfonamide [Example 53]
